From patent publication US20150258084A1, “STEM CELL COMPOSITIONS AND METHODS OF THEIR USE” (Banner Health, priority 2014, published 2015)

Experiments:
Type in all cases: cell-based, rat
[1] = tested on: cardiac stem cells; assay: RNA expression analysis (real-time RT-PCR) of EMT and pluripotency markers after 7 days with TGF-β inhibitors
Procedure: Total RNA was extracted from the cardiac stem cells using PureLink RNA Mini Kit (Life Technologies) according to the manufacturer's protocol. RNA was then quantified with a Quanti-iT RiboGreen RNA Assay Kit and assessed using a BioTek Synergy HT Microplate Reader (excitation/emission 480/520 nm). Total RNA (200 ng) was reverse-transcribed with a QuantiTect Reverse Transcription kit (Qiagen). Real-time RT-PCR was conducted using Rower SYBR Green Master Mix (Applied Biosystems) on a StepOnePlus Real-time PCR System (Applied Biosystems). Specific primers were synthesized by Life Technologies. CYPA was used as a reference gene. Data analysis was performed on StepOne software version 2.1 (Applied Biosystems) using the comparative Ct (AACt) quantitation method.
To determine the effect of inhibition of TGF-β signaling in cardiac stem cells on markers of epithelial/endothelial to mesenchymal transition (i.e., EMT markers) and pluripotency markers the following experiments were performed. Cardiac stem cells were isolated from sham and CHF heart tissue as described in Example 1 above. Cardiac stem cells from CHF and sham animals were treated in culture with TGF-β inhibitors SB431542 or SIS3 for 7 days and subsequently assessed for EMT and pluripotency expression by RNA expression analysis and western blotting using the techniques described above in Example 1.

[2] = tested on: explant-derived cardiac stem cells; assay: Flow cytometry of explant outgrowths cultured 21 days with TGF-β inhibitors
Procedure: Isolated cardiac stem cells were further characterized using flow cytometry as follows. Cells were fixed in 70% ethanol and labeled with the following antibodies: c-Kit (Santa-Cruz Biotechnology), vimentin and smooth muscle actin (Abcam), and CD90 (BD Biosciences). Cells were treated with secondary antibodies corresponding to either anti-rabbit or anti-mouse IgG conjugated with Alexa 488, phycoerythrin (PE), or PE-Cy5.5 (Life Technologies). Direct labeling with FITC-conjugated CD34 and PE-Cy5.5 conjugated CD45 (BD Biosciences) antibodies was used to exclude bone marrow and hematopoietic cells. Freshly isolated bone marrow cells were used as positive controls for CD34 and CD45 labeling. For a negative control, cells were labeled with isotype IgG instead of primary antibody. Cell events were detected using a FACS Calibur flow cytometer equipped with an argon laser (BD Biosciences). Data were analyzed using CellQuest software (BD Biosciences).
The effects of TGF-β inhibition on the yield of explant-derived cardiac stem cells were examined as follows. Cardiac stem cells were isolated from heart tissue of CHF and sham animals as described in Example 1 above. Cells were subsequently cultured in cardiac differentiation medium (EMD Millipore) supplemented with 2 μmol/L Mocetinostat (SelleckChem) in the presence or absence of TGF-β inhibitors SB431542 and SIS3 for 21 days. Explant outgrowths were analyzed by flow cytometry as described above in Example 1.

[3] = tested on: cardiac explants; assay: Morphology of explant cultures after 21 days with TGF-β inhibitors; conditions: 21 days in culture
[4] = tested on: cardiac stem cells; assay: Differentiation potential: cardiac troponin T (TnT) immunocytochemistry; conditions: 7 days in cardiac differentiation medium with 2 μmol/L Mocetinostat
Procedure: The effects of TGF-β inhibition on the differentiation potential of cardiac stem cells was examined as follows. Cardiac stem cells were isolated from heart tissue of CHF and sham animals as described in Example 1 above. Cells were subsequently cultured in cardiac differentiation medium (EMD Millipore) supplemented with 2 μmol/L Mocetinostat (SelleckChem) in the presence or absence of TGF-β inhibitors SB431542 and SIS3 for 7 days. Expression of cardiac troponin T (TnT) was evaluated by immunocytochemistry. TnT is an accepted marker for cardiac differentiation. Cells were fixed/permeabilized with a 1:1 acetone:ethanol mixture, blocked with 3% BSA in PBS, and labeled with mouse anti-TnT primary antibody (Abcam). Specific staining was visualized using anti-mouse secondary antibodies conjugated with Alexa 568 (Molecular Probes). Nuclei were stained with 4′,6-diamidino-2-phenylindole (Invitrogen). TnT-positive cells were quantified in 5 random microscopic fields. The percentage of TnT-positive cells was calculated as the number of positively stained cells normalized to the total number of cells.

Compound | increased Sox2 expression ([1]; CHF cardiac stem cells) [fold] | upregulated E-cadherin expression ([1]; CHF cardiac stem cells) | upregulated Nanog expression ([1]; CHF cardiac stem cells) | increased Sox2 expression ([1]; sham cardiac stem cells) [fold] | reduced SMA gene expression ([1]; sham cardiac stem cells) [fold] | upregulated E-cadherin expression ([1]; sham cardiac stem cells) [fold] | upregulated Nanog expression ([1]; sham cardiac stem cells) [fold] | decreased percentage of vimentin-positive fibroblasts ([2]; CHF CSCs) [%] | increase in the number of c-Kit+ cells ([2]; CHF CSCs) | reduction of the number of SMA-positive myofibroblasts ([2]; CHF CSCs) [%] | decreased percentage of vimentin-positive fibroblasts ([2]; sham CSCs) [%] | increase in the number of c-Kit+ cells ([2]; sham CSCs) [%] | number of small, round phase-bright cell clusters compared with controls [3] | TnT+ cells ([4]; CHF cardiac stem cells) [%] | TnT+ cells ([4]; sham cardiac stem cells) [%] | reduction of the number of CD90-positive cells ([2]; CHF CSCs) [%] | reduction of the number of CD90-positive cells ([2]; sham CSCs) [%]
NC(=O)c1ccc(-c2nc(-c3ccc4c(c3)OCO4)c(-c3ccccn3)[nH]2)cc1 [SB431542] | 4.1 | 3.6 fold | 2.4 fold | 5.2 | 2 | 6.2 | 2 | 42 | 75% | 63.3 | 55 | 36.6 | higher number | 15.4 | 24.4 | – | –
COc1cc2c(cc1OC)CN(C(=O)/C=C/c1c(-c3ccccc3)n(C)c3ncccc13)CC2 [SIS3] | – | no effect | no effect | 4 | 5 | 5 | 2.2 | 34 | no effect | 62.8 | 35 | 52 | higher number | 19.6 | 36.2 | 53 | 52.4
